{"source": "patent US20180320177A1", "about": "“COMPOSITIONS AND METHODS FOR THE TREATMENT OF LIVER FIBROSIS” (UNIVERSITY OF CONNECTICUT, priority 2015, published 2018)", "key": {"[1]": {"system": "CCl4-induced liver fibrosis", "test": "CCl4-induced liver fibrosis model in mice (Masson Trichrome, ALT, gross morphology)", "assay_type": "in vivo, mouse", "method": "(§1) Animal Care: All animal care and experimental procedures were approved by the Institutional Animal Care and Use Committee at the University of Connecticut. Shp^−/− mice were described previously. Hmgb2^−/− mice were obtained from Dr. Stella Tsirka at Stony Brook University. C57BL/6J mice were purchased from Jackson Laboratory. All mice were maintained on a 12-h light/dark cycle with free access to food and water unless otherwise indicated. For CCl4 treatment, CCl4 (Sigma) was dissolved in corn oil and administered to mice at a dose of 850 μl/kg BW by intraperitoneal injection (IP) twice a week for 6 or 10 weeks with or without ICM. Age-matched control mice were treated with a corn oil vehicle. For CCl4+ICM treatment, mice were treated with CCl4 for 2 weeks and then ICM (Department of Pharmaceutical Sciences at UConn) was dissolved in PEG (Sigma) and treated with mice (10 mg/kg) every day for 4 or 8 weeks in combination with CCl4. To induce overexpression of HMGB2 in liver, AAV8-Hmgb2 or a control AAV8-GFP was given to mice by tail vein injection at a dose of 5×10^10 GC. To knockdown HMGB2 in mouse livers, AAV-shHmgb2 or a control AAV-shGFP was delivered to mice at a dose of 2×10^10 GC by tail vein injection. One week later, mice injected with AAVs were treated with CCl4 or CCl4 +ICM as described above and sacrificed. Livers were removed and snap-frozen in liquid nitrogen for RNA and protein analysis. For the collection of mouse fetal livers, pregnant female mice were sacrificed at E12.5, E15, and E18.5 and livers were removed from the embryos. Additionally, post-natal mouse livers were harvested at postnatal day P1 and P60.\nHistology: Livers were fixed in 10% neutral buffered formalin and embedded in paraffin. Liver blocks were cut at 5 μm and the sections were stained with hematoxylin and eosin (H&E) and Masson's trichrome according to standard procedures.\nALT and AST: Alanine transaminase (ALT) and Aspartate aminotransferase (AST) were measured by Infinity ALT (GPT) Liquid Stable Reagent and AST (GOT) Liquid Stable Reagent according to the manufacturer's instructions (Thermo Scientific).\nFor CCl4 treatment, CCl4 (Sigma) was dissolved in corn oil and administered to mice at a dose of 850 µl/kg BW by intraperitoneal injection (IP) twice a week for 6 or 10 weeks with or without ICM. Age-matched control mice were treated with a corn oil vehicle. For CCl4+ICM treatment, mice were treated with CCl4 for 2 weeks and then ICM (Department of Pharmaceutical Sciences at UConn) was dissolved in PEG (Sigma) and treated with mice (10 mg/kg) every day for 4 or 8 weeks in combination with CCl4. To induced overexpression of HMGB2 in liver, AAV8-Hmgb2 or a control AAV8-GFP was given to mice by tail vein injection at a dose of 5×10^10 GC. […]"}, "HMGB2 protein": {"target": "T1, HMGB2 protein (Mus musculus, UniProt P30681)", "T1 construct": "Total protein lysates were prepared from livers and cells in lysis buffer; from tissue; host or cells: mouse liver (C57BL/6J, CCl4 with or without ICM)", "T1 sequence (P30681 1-210)": "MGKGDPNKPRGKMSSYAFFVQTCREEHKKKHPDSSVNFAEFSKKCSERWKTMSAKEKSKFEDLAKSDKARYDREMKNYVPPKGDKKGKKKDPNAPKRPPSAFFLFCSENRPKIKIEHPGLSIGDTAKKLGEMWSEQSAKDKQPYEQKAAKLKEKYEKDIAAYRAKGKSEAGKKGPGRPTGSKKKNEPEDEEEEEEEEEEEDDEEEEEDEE", "test": "Western blot of HMGB2 protein in liver of CCl4-treated mice", "assay_type": "in vivo", "method": "as §1, with “Livers were removed and snap-frozen in liquid nitrogen for RNA and protein analysis. For the collection of mouse fetal livers, pregnant female mice were sacrificed at E12.5, E15, and E18.5 and livers were removed from the embryos. Additionally, post-natal mouse livers were harvested at postnatal day P1 and P60.” left out"}}, "note": "Entries after “also recorded” stand apart in the source; their conditions may differ."}
{"smiles": "CC1(C)Oc2cc(O)ccc2C2C1=CCn1c(=O)n(-c3ccccc3)c(=O)n12", "note": "(stereo not drawn) [ICM, inflachromene]", "values": [{"measurement": "liver gross morphology", "setting": "[1]; ICM 10 mg/kg i.p. daily for 4 wks (FIG. 16B)", "result": "improved liver gross morphology"}, {"measurement": "plasma ALT levels", "setting": "[1]; ICM 10 mg/kg i.p. daily for 4 wks (FIG. 16C)", "result": "decreased plasma ALT levels"}, {"measurement": "serum ALT", "setting": "[1]; ICM (FIG. 5B)", "result": "decreases"}, {"measurement": "liver fibrosis", "setting": "[1]; ICM in PEG 10 mg/kg i.p. daily for 4 wks, Masson Trichrome staining", "result": "decreases; also recorded: diminished liver fibrosis"}, {"measurement": "liver HMGB2 protein induced by CCl4", "setting": "HMGB2 protein; CCl4 mice treated with ICM, Western blot", "result": "decreases; also recorded: blocked by ICM; also recorded: reduction in liver HMGB2 protein"}, {"measurement": "selectivity HMGB2 protein versus HMGB1 protein", "setting": "HMGB2 protein; mouse liver, CCl4+ICM (FIG. 16)", "result": "more selective to downregulate HMGB2 protein"}]}
